# Experimental data published in US6806269B1, “2-Amino-benzoxazinones for the treatment of herpes simplex virus” (G. D. Searle & Cop, priority 1999, dated 2004).
# pEC50, pIC50: −log10 of the molar value.
# How the values were obtained:
# [1] = biological target: T1, HSV-1 protease (assemblin) (Human herpesvirus 1, UniProt P10210); test: Enzymatic assay for HSV-1 protease (assemblin) inhibition (FP assay / HPLC assay); type: biochemical; conditions: recombinant HSV-1 protease; 30 minute pre-incubation at room temperature; FP or HPLC format not stated; read-out: ENZYME IC50
# T1 construct: encoding residues 1-288 of HSV-1 UL26 open reading frame and 32 heterologous amino acid; 6xHis (N); made in house
# Protocol: Enzymatic Assay for HSV-1 Protease (Assemblin) Inhibition
# Assemblin protease activity was determined using fluorescence polarization (FP). The fluorescent substrate was biotin-gamma-aminobutyrate -[…]-DTAF, based on the HSV-1release cleavage site. […] A change in molecular size of fluorescent substrate molecule, which was increased using avidin as a reaction stop reagent, allowed cleavage to be measured by FP. Potential protease inhibitors were dissolved in DMF and then diluted 5-fold in assay buffer. […] The enzyme was diluted to 21.3 ug/mL in assay buffer (1M NaCitrate, 50 mM NaPhosphate, pH 7.4, 100mM NaCl, 20% glycerol, 2 mM TECP) and 48.5 uL were added to each well. Following a 30 minute incubation at room temperature, 10 uL of 62.5 ug/mL substrate were added. After about 90 minute incubation at room temperature, 50 uL of 2 mg/mL avidin in phosphate buffer (50 mM Naphosphate, 100 mM NaCl, pH 7.4) were added to each well. The plates were read by a fluorescence polarization plate reader. Inhibitor potency was determined by comparison with incubations lacking inhibitor.
# Assays were performed with the peptide substrate H-His-Thr-Tyr-Leu-Gln-Ala-Ser-Glu-Lys-Phe-Lys-Met-Trp-Gly-NH2 (Bachem). This substrate is a HSV-1-amide UL26 Open Reading Frame (242-255) and is derived from the release site of HSV-1 protease. HSV-1protease cleaves between alanine and serine. The product […] was quantified on HPLC using fluorescence detection of tryptophan residue. Enzyme was diluted to 4.3 ug/mL in assay buffer (1 M NaCitrate, 50 mM NaPhosphate, pH 7.3, 100 mM NaCl, 20% glycerol, 2 mM TCEP) and 48.5 uL were added to the tubes. Potential protease inhibitors were dissolved in DMF and then diluted 10-fold in assay buffer. 6.5 uL of inhibitor solution were added to each tube. Following a 30-minute incubation at room temperature, 10 uL of substrate in phosphate buffer (50 mM Naphosphate, 100 mM NaCl, pH 7.4) were added to all tubes. The final concentration of the substrate in the reaction mixtures was 10 uM. After a 15-minute incubation at room temperature, assays were quenched using 50 uL of 50% TCA. Inhibitor potency was determined by comparison with incubations lacking inhibitor, which under these conditions gave about 20% cleavage of substrate.
# Recombinant HSV-1 Protease
# HSV-1 protease was purified from baculovirus expressing a DNA construction encoding residues 1-288 of HSV-1 UL26 open reading frame and 32 heterologous amino acid. The construction also encoded six additional histidine residues at the amino terminus of the protease. These additional histidine residues provided an affinity ligand by which the protein was purified using Ni-NTA agarose gel (Qiagen). The purified protease was stored in stock solution (20 mM HEPES buffer, pH 8.5, containing 20% (v/v) glycerol). This stock was diluted with assay buffer to adequate concentration of enzymatic assay.
# A specific substrate was synthesized based on the cleavage specificity of HSV-1 protease at the “release site” of the assembly protein (DiIanni, C. L., et al., J. Biol. Chem. 268, 2048, (1993)). The assembly protein release site has the sequence, HTYLQA*SEKFKMWG. The substrate used was biotin-gamma -aminobutyrate-HTYLQA*SERFRIK-DTAF which was prepared by standard peptide synthetic methods such as that described in Bodansky and Bodansky, “The Practice of Peptide Synthesis” (1984), and was stored as a stock solution at 2.5 mg/mL in DMF. This was diluted to 62.5 ug/mL with phosphate buffer (50 mM Naphosphate, […], pH 7.4) just before use.
# The substrate was HSV-1-amide UL 26 Open Reading Frame (242-255), obtained from Bachem (Product No. M-2160).
# An assay buffer (1 M NaCitrate, 50 mM NaPhosphate, pH 7.4, 100 mM NaCl, 20% glycerol, 2 mM TCEP) was used to dilute stock solutions of enzyme and inhibitors.
# [2] = tested on: HSV-1; test: Antiviral assay: plaque reduction assay, HSV-1 in vero cells; type: cell-based, HSV-1 (vero cells, African green monkey kidney cell); conditions: Human alphaherpesvirus 1, Vero, 72 h, read-out: ANTIVIRUS EC50
# From the text: These complimentary assays tested the ability of a compound to inhibit the production of new virus and the toxicity of the compound to the host cells. It was important that both assays be performed simultaneously in order to compare the results directly since toxicity may indirectly reduce viral replication.
# The antiviral assay was estimated by plaque reduction assay performed by following methods. 1×10^5 of vero cells (African green monkey kidney cell) in 48-well plates were over-night cultured and the medium of this culture was replaced with 200 μl of 2% FBS DMEM containing 2× the desired final cordon of test compounds or no compound as control. The cultures were added 50 μl of 2% FBS DMEM containing with about 50 plaque forming units of HSV-1and next 250 μl of 2% FBS DMEM containing 1% methylcellulose. These infected cultures were incubated at 37° C., 5% CO2 for 3 days until plaques was visible. The cells were fixed and stained simultaneously with 0.025% crystalviolet in 5% formalin solution and plaque were counted. The concentration of test compound which conferred 50% inhibition of plaque formation compared to no compound control was interpolated from the observed data and defined as IC50.
# [3] = biological target: T2, Human leukocyte elastase (HLE) (Homo sapiens, UniProt P08246); test: Human leukocyte elastase assay; type: biochemical; conditions: 50 μM compound; 30 minutes pre-incubation
# T2 construct: purchased CALBIOCHEM
# T2 sequence (P08246 30-267): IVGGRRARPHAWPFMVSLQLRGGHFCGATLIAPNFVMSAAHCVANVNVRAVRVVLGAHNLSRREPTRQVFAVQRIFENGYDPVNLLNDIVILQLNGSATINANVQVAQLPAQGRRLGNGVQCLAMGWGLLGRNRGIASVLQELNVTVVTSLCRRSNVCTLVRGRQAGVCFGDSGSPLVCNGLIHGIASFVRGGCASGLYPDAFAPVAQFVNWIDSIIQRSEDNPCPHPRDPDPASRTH
# Protocol: Human Leukocyte Elastase Assay
# Human leukocyte elastase (HLE) (CALBIOCHEM) was dissolved in saline at 1 mg/ml and further diluted 1/10 in assay buffer (0.2 M Tris, pH 8.0) before use.
# 0.75 μl of test compound in DMF (or DMF alone), 50 μl of assay buffer and 50 μl of enzyme were added to 96 well plate, mixed and pre-incubated for 30 minutes at ambient temperature. Reaction was initiated by addition of 50 μl of 2.5 mM methoxysuccinyl-Ala-Ala-Pro-Val-p-nitroanilide (Sigma; 25 mM in DMSO diluted 1/10 in assay buffer before use). The increase in absorbance at 405 nm was monitored for 3 min. with BIO-RAD model 3550 microplate reader.
# [4] = biological target: T3, Bovine pancreas α-chymotripsin (Bos taurus, UniProt P00766); test: Chymotripsin assay; type: biochemical; conditions: 50 μM compound; 30 minutes pre-incubation; read-out: INHIBITION AT 50 μM CHYMOTRYPSIN (%)
# T3 construct: purchased Sigma type II; host or cells: bovine pancreas
# Protocol: The chymotripsin assay was modified from the method of Delmar, et al. (Anal. Biochem. 99, 316-320 (1979)). Bovine pancreas α-chymotripsin(type II, Sigma) was dissolved in 0.001 N HCl at 1 mg/ml and further diluted 1/1000 in assay buffer (0.1 M Tris, pH 7.8 containing 0.1 M CaCl2) before use. 0.75 μl of test compound in DMF (or DMF alone), 50 μl of assay buffer and 50 μl of enzyme were added to 96 wells plates, mixed and pre-incubated for 30 minutes at ambient temperature. Reaction was initiated by addition of 50 μl of 0.2 mM N-succinyl-Ala-Ala-Pro-Phe-p-nitroanilide (Sigma; 2 mM in DMSO diluted 1/10 in assay buffer before use). The increase in absorbance at 405 nm was monitored for 3 minutes with BIO-RAD model 3550 microplate-reader.
# T1 sequence (P10210 1-288): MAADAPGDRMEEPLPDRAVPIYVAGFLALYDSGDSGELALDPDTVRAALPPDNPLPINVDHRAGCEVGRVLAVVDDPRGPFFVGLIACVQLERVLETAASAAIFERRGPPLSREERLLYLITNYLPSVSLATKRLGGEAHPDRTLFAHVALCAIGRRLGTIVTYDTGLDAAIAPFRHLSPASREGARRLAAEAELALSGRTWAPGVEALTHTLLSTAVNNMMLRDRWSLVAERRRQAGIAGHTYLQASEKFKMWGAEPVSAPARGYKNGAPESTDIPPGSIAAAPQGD
SMILES,pIC50 [1],pEC50 [2],inhibition at 50 µM [3],inhibition at 50 µM [4]
"Cc1c(NC(=O)c2c(F)cc(F)cc2F)ccc2nc(N(C(C)C)C(C)C)oc(=O)c12 [Compound 12, 6-[(2,4,6-Trifluorobenzoyl)amino]-5-methyl-2(diisopropylamino)-4H-3,1-benzoxazine-4-one]",5.20,5.17,13.4%,22.4%
"Cc1c(NC(=O)OC(C)(C)C)ccc2nc(N(CCC#N)C3CC3)oc(=O)c12 [Compound 13, 6-[[(1,1-Dimethylethoxy)carbonyl]amino]-5-methyl-2-[(2-cyanoethyl)-(cyclopropyl)amino]-4H-3,1-benzoxazin-4-one]",5.41,5.12,0%,2.2%
Cc1c(NC(=O)OC(C)(C)C)ccc2nc(N3CCN(C(=O)c4ccco4)CC3)oc(=O)c12 [Compound 14],5.70,5.80,46.3%,0%
"Cc1c(NC(=O)OC(C)(C)C)ccc2nc(N3CCN(S(=O)(=O)c4ccccc4)CC3)oc(=O)c12 [Compound 15, 6-[[(1,1-Dimethylethoxy)carbonyl]amino]-5-methyl-2-[(4-benzenesulfonyl)-piperazinyl]-4H-3,1-benzoxazin-4-one]",5.77,5.55,0%,0%
"CC(=O)N1CCN(c2nc3ccc(NC(=O)OC(C)(C)C)c(C)c3c(=O)o2)CC1 [Compound 16, 6-[[(1,1-Dimethylethoxy)carbonyl]amino]-5-methyl-2-[4-(1-acetylpiperadinyl)]-4H-3,1-benzoxazin-4-one]",5.64,5.44,1.4%,0%
"Cc1c(NC(=O)OC(C)(C)C)ccc2nc(N3CCN(C(=O)c4cccs4)CC3)oc(=O)c12 [Compound 17, 6-[[(1,1-Dimethylethoxy)carbonyl]amino]-5-methyl-2-[(4-thenoyl)piperzinyl]-4H-3,1-benzoxazin-4-one]",5.38,5.39,0%,0%
"Cc1c(NC(=O)OC(C)(C)C)ccc2nc(N(C)Cc3ccccn3)oc(=O)c12 [Compound 18, 6-[[(1-Dimethylethoxy)carbonyl]amino]-5-methyl-2-[methyl(2-pyridylmethyl)-amino]-4H-3,1-benzoxazin-4-one]",5.82,4.82,28.7%,0%
